≈ marks a conversion by molar mass, not a printed value. Counter-ions that a name gives are not always drawn. Like-named read-outs stand apart in the source and are kept apart here. One block for each compound: values may come before it.
How the values were obtained:
[1] = salts of pivampicillin, cited from earlier work
[2] = design: species or system healthy volunteers (adults); conditions: human, in vivo
Procedure: The above preparation was given to five healthy volunteers (adults), and as will appear from Table II below, gave rise to high serum concentrations and a high urinary recovery, as expressed below in terms of serum concentrations and urinary excretion, respectively.
SERUM CONCENTRATIONS (mcg per ml) AND URINARY EXCRETION
(in per cent of dose administered) OF AMPICILLIN IN FIVE
HEALTHY VOLUNTEERS (ADULTS) FOLLOWING ORAL ADMINISTRATION
OF 10 ml OF "PIVAMPICILLIN ORAL SUSPENSION" CONTAINING
PIVAMPICILLIN BASE CORRESPONDING TO 250 mg AMPICILLIN

[3] = Stability of crystalline pivampicillin and of the preparation of Example 20 (chemical analyses); type: physicochemical; conditions: crystalline pivampicillin in medical preparations
Procedure: Thus the preparation, the formulation of which is described in Example 20 of the present Specification, had according to chemical analyses a stability corresponding to a decrease in activity in the order of 5% over a 2 years period when stored at 20°C and a relative humidity of 40%.

[4] = Solubilities at room temperature (about 25°C) in various solvents; type: physicochemical
[5] = Density of crystalline pivampicillin compared with its salts; type: physicochemical; conditions: crystalline pivampicillin versus its salts
[6] = chemical substance pivampicillin, under certain conditions; cited from earlier work

SMILES: CC(C)(C)C(=O)OCOC(=O)[C@@H]1N2C(=O)[C@@H](NC(=O)[C@H](N)c3ccccc3)[C@H]2SC1(C)C
Solubility of salt in water (in words) [1]: slightly soluble in water

SMILES: CC(C)(C)C(=O)OCOC(=O)[C@@H]1N2C(=O)[C@@H](NC(=O)[C@H](N)c3ccccc3)[C@H]2SC1(C)C [hydrochloride, pivaloyloxymethyl D(-)-α-aminobenzylpenicillinate, hydrochloride]
Solubility of salt in water (in words) ([1]; hydrochloride): readily soluble in water

Absorption (in words) [2]: excellent absorption
Stability (in words) [3]: stable compound
Solubility in water (in words) ([4]; crystalline pivampicillin): extremely low solubility in water
Stability in methanol ([4]; methanol, room temperature (about 25°C)): destruction
solubility ([4]; organic solvent or mixture, acetonitrile, room temperature (about 25°C), read-out: Solubility in acetonitrile): 450000 µg/mL (≈ 971 mM)
solubility ([4]; organic solvent or mixture, cyclohexane, room temperature (about 25°C), read-out: Solubility in cyclohexane): 150 µg/mL (≈ 0.324 mM)
solubility ([4]; organic solvent or mixture, ethanol, room temperature (about 25°C), read-out: Solubility in ethanol): 40000 µg/mL (≈ 86.3 mM)
solubility ([4]; organic solvent or mixture, ether, room temperature (about 25°C), read-out: Solubility in ether): 10000 µg/mL (≈ 21.6 mM)
solubility ([4]; organic solvent or mixture, isopropanol, room temperature (about 25°C), read-out: Solubility in isopropanol): 12000 µg/mL (≈ 25.9 mM)
solubility ([4]; organic solvent or mixture, isopropylether, room temperature (about 25°C), read-out: Solubility in isopropylether): 1000 µg/mL (≈ 2.16 mM)
solubility ([4]; organic solvent or mixture, light petroleum (bp. 60-80°C), room temperature (about 25°C), read-out: Solubility in light petroleum): 20 µg/mL (≈ 0.0431 mM)
solubility ([4]; organic solvent or mixture, methanol, room temperature (about 25°C), (destruction), read-out: Solubility in methanol): > 500000 µg/mL
solubility ([4]; water, room temperature (about 25°C), read-out: Solubility in water): 100 µg/mL (≈ 0.216 mM)
Density [5]: higher density than its salts
SMILES: CC(C)(C)C(=O)OCOC(=O)[C@@H]1N2C(=O)[C@@H](NC(=O)[C@H](N)c3ccccc3)[C@H]2SC1(C)C [pivampicillin, pivaloyloxymethyl D(-)-α-aminobenzylpenicillinate]
Tendency to polymerize [6]: apt to polymerize

From patent US3956279A, “Crystalline pivaloyloxymethyl d(-)-α-aminobenzylpenicillinate” (priority 1973, dated 1976)
